# In ChEMBL document CHEMBL1154091, “Reaction of the antitumor antibiotic olivomycin I with aryl diazonium salts. Synthesis, cytotoxic and antiretroviral potency of 5-aryldiazenyl-6-O-deglycosyl derivatives of olivomycin I” (Bioorg Med Chem, 2009):
# The source made the active and inactive calls. The calls are words filed in the database; no cut-off is given here.
# Legend:
# HCT-116 = test: Antiproliferative against human HCT116 cells after 72 hrs; type: functional, cell-based; conditions: HCT-116, 72 h
# [1] = Antiproliferative against human Molt4/C8 cells after 72 hrs; type: functional, cell-based; conditions: MOLT-4, 72 h
# [2] = molecular target: T1, DNA topoisomerase 1 (Homo sapiens) (UniProt P11387); test: Inhibition of DNA topoisomerase 1 assessed as inhibition of unwinding of supercoiled pBR322 DNA at 10 to 20 uM by agarose gel electrophoresis
# T1 sequence (whole entry): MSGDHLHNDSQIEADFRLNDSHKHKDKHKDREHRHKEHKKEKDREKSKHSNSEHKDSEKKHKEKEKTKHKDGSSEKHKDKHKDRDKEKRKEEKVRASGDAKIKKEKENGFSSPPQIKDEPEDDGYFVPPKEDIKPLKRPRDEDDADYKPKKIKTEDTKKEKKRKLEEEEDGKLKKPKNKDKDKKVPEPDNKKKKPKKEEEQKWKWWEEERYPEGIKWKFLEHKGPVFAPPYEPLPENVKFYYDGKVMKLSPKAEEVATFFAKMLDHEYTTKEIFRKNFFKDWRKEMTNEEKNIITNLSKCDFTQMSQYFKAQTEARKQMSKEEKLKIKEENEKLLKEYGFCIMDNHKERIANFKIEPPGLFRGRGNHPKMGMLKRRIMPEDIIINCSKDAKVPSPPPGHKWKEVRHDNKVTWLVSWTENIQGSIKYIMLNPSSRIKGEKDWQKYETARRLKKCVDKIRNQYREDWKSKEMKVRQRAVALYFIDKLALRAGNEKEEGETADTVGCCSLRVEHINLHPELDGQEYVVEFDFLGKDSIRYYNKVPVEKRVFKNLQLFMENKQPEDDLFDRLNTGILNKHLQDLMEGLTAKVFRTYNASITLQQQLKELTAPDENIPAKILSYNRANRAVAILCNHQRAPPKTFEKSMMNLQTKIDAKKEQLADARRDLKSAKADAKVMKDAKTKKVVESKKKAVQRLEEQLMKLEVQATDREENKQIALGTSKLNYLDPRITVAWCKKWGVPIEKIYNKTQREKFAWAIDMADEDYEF
# [3] = tested on: Human immunodeficiency virus 2; test: Antiviral activity against HIV2 ROD infected in human CEM cells assessed as drug level required for protection against virus-induced cytopathogenicity after 4 days; type: functional, organism-based; conditions: Human immunodeficiency virus 2, ISOLATE ROD, CCRF-CEM, 96 h
# CCRF-CEM = test: Antiproliferative against human CEM cells after 72 hrs; type: cell-based
# [4] = molecular target: T1, DNA topoisomerase 1 (Homo sapiens); test: Inhibition of DNA topoisomerase 1 assessed as partial inhibition of unwinding of supercoiled pBR322 DNA at 5 uM by agarose gel electrophoresis
# [5] = tested on: Human immunodeficiency virus 1; test: Antiviral activity against HIV1 3B infected in human CEM cells assessed as drug level required for protection against virus-induced cytopathogenicity after 4 days; type: functional, organism-based; conditions: Human immunodeficiency virus 1, 3B, CCRF-CEM, 96 h
# L1210 = test: Antiproliferative against mouse L1210 cells after 48 hrs; type: functional, cell-based; conditions: L1210, 48 h
# K562 = test: Antiproliferative against human K562 cells after 72 hrs; type: functional, cell-based; conditions: K562, 72 h
# [6] = tested on: Vesicular stomatitis virus; test: Antiviral activity against VSV infected in human HeLa cells at subtoxic concentration; type: functional, organism-based
# Human respirovirus 3 = test: Antiviral activity against Parainfluenza virus 3 infected in african green monkey Vero cells at subtoxic concentration; type: functional, organism-based
# [7] = tested on: Respiratory syncytial virus; test: Antiviral activity against Respiratory syncytial virus infected in human HeLa cells at subtoxic concentration; type: functional, organism-based
# [8] = molecular target: T1, DNA topoisomerase 1 (Homo sapiens); test: Inhibition of DNA topoisomerase 1 assessed as inhibition of unwinding of supercoiled pBR322 DNA at 20 uM by agarose gel electrophoresis
# Vaccinia virus = test: Antiviral activity against Vaccinia virus infected in HEL cells at subtoxic concentration; type: functional, organism-based; conditions: Orthopoxvirus vaccinia
# Punta Toro virus = test: Antiviral activity against Punta Toro virus infected in african green monkey Vero cells at subtoxic concentration; type: functional, organism-based
# Sindbis virus = test: Antiviral activity against Sindbis virus infected in african green monkey Vero cells at subtoxic concentration; type: functional, organism-based
# Coxsackievirus B4 [9] = test: Antiviral activity against Coxsackievirus B4 infected in african green monkey Vero cells at subtoxic concentration; type: functional, organism-based
# Human alphaherpesvirus 1 = test: Antiviral activity against HSV1 infected in HEL cells at subtoxic concentration; type: functional, organism-based
# [10] = Selectivity index, ratio of IC50 for human CEM cells to EC50 for HIV1 3B; type: toxicity, cell-based, CCRF-CEM; conditions: read-out: Ratio IC50/EC50
# [11] = tested on: Vesicular stomatitis virus; test: Antiviral activity against VSV infected in HEL cells at subtoxic concentration; type: functional, organism-based
# [12] = tested on: Mammalian orthoreovirus 1; test: Antiviral activity against Reovirus 1 infected in african green monkey Vero cells at subtoxic concentration; type: functional, organism-based
# Human alphaherpesvirus 2 = test: Antiviral activity against HSV2 infected in HEL cells at subtoxic concentration; type: functional, organism-based
# Influenza B virus = test: Antiviral activity against influenza B virus infected in […] cells at subtoxic concentration; type: functional, organism-based
# Influenza A virus = test: Antiviral activity against influenza A virus H1N1:H3N2 infected in […] cells at subtoxic concentration; type: functional, organism-based
# Coxsackievirus B4 [13] = test: Antiviral activity against Coxsackievirus B4 infected in human HeLa cells at subtoxic concentration; type: functional, organism-based
# [14] = molecular target: T1, DNA topoisomerase 1 (Homo sapiens); test: Inhibition of DNA topoisomerase 1 assessed as partial inhibition of unwinding of supercoiled pBR322 DNA at 20 uM by agarose gel electrophoresis
Compound,IC50 [1],EC50 [3],IC50 (CCRF-CEM),EC50 [5],IC50 (L1210),Activity [6],Activity (Human respirovirus 3),Activity [7],Activity [8],Activity (Vaccinia virus),Activity (Punta Toro virus),Activity (Sindbis virus),Activity (Coxsackievirus B4 [9]),Activity (Human alphaherpesvirus 1),selectivity ratio [10],Activity [11],Activity [12],Activity (Human alphaherpesvirus 2),Activity (Influenza B virus),Activity (Influenza A virus),further results
CO[C@@H]1[C@H](O)C[C@@H](O[C@@H]2C[C@H](Oc3cc(O)c4c(O)c5c(cc4c3)C[C@@H]([C@H](OC)C(=O)[C@@H](O)[C@@H](C)O)[C@H](O[C@H]3C[C@@H](O[C@H]4C[C@@H](O[C@H]6C[C@](C)(O)[C@@H](OC(=O)C(C)C)[C@H](C)O6)[C@H](O)[C@@H](C)O4)[C@H](O)[C@@H](C)O3)C5=O)O[C@H](C)[C@@H]2OC(C)=O)O[C@@H]1C [OLIVOMYCIN I],4 nM,4 nM,2.5 nM,5 nM,34 nM,–,–,–,–,–,–,–,–,–,–,–,–,–,–,–,IC50 (HCT-116): 55 nM; Activity [2]: Active; Activity [4]: Active; IC50 (K562): 44 nM
CO[C@H](C(=O)[C@@H](O)[C@@H](C)O)[C@@H]1Cc2cc3c(/N=N/c4ccc(Cl)c(Cl)c4)c(O)cc(O)c3c(O)c2C(=O)[C@H]1O[C@H]1C[C@@H](O[C@H]2C[C@@H](O[C@H]3C[C@](C)(O)[C@@H](OC(=O)C(C)C)[C@H](C)O3)[C@H](O)[C@@H](C)O2)[C@H](O)[C@@H](C)O1,1900 nM,≥ 800 nM,2600 nM,500 nM,5600 nM,inactive,inactive,inactive,Active,inactive,inactive,inactive,inactive,inactive,5.2,inactive,inactive,inactive,inactive,inactive,Activity (Coxsackievirus B4 [13]): inactive
COc1ccc(/N=N/c2c(O)cc(O)c3c(O)c4c(cc23)C[C@@H]([C@H](OC)C(=O)[C@@H](O)[C@@H](C)O)[C@H](O[C@H]2C[C@@H](O[C@H]3C[C@@H](O[C@H]5C[C@](C)(O)[C@@H](OC(=O)C(C)C)[C@H](C)O5)[C@H](O)[C@@H](C)O3)[C@H](O)[C@@H](C)O2)C4=O)cc1,7300 nM,≥ 4000 nM,26000 nM,500 nM,20000 nM,inactive,inactive,inactive,inactive,inactive,inactive,inactive,inactive,inactive,52,inactive,inactive,inactive,inactive,inactive,Activity (Coxsackievirus B4 [13]): inactive
CO[C@@H]1[C@H](O)C[C@@H](O[C@@H]2C[C@H](Oc3cc(OC(C)=O)c4c(O)c5c(cc4c3)C[C@@H]([C@H](OC)C(=O)[C@@H](O)[C@@H](C)O)[C@H](O[C@H]3C[C@@H](O[C@H]4C[C@@H](O[C@H]6C[C@](C)(O)[C@@H](OC(=O)C(C)C)[C@H](C)O6)[C@H](O)[C@@H](C)O4)[C@H](O)[C@@H](C)O3)C5=O)O[C@H](C)[C@@H]2OC(C)=O)O[C@@H]1C,22 nM,–,2.4 nM,–,8 nM,–,–,–,–,–,–,–,–,–,–,–,–,–,–,–,–
CO[C@H](C(=O)[C@@H](O)[C@@H](C)O)[C@@H]1Cc2cc3c(/N=N/c4ccc(C)cc4)c(O)cc(O)c3c(O)c2C(=O)[C@H]1O[C@H]1C[C@@H](O[C@H]2C[C@@H](O[C@H]3C[C@](C)(O)[C@@H](OC(=O)C(C)C)[C@H](C)O3)[C@H](O)[C@@H](C)O2)[C@H](O)[C@@H](C)O1,–,–,–,–,–,–,–,–,–,–,–,–,–,–,–,–,–,–,–,–,Activity [14]: Active; IC50 (HCT-116): 2400 nM; IC50 (K562): 2000 nM
CO[C@H](C(=O)[C@@H](O)[C@@H](C)O)[C@@H]1Cc2cc3c(/N=N/c4ccccc4)c(O)cc(O)c3c(O)c2C(=O)[C@H]1O[C@H]1C[C@@H](O[C@H]2C[C@@H](O[C@H]3C[C@](C)(O)[C@@H](OC(=O)C(C)C)[C@H](C)O3)[C@H](O)[C@@H](C)O2)[C@H](O)[C@@H](C)O1,1600 nM,≥ 40 nM,1800 nM,60 nM,6100 nM,inactive,inactive,inactive,inactive,inactive,inactive,inactive,inactive,inactive,30,inactive,inactive,inactive,inactive,inactive,Activity (Coxsackievirus B4 [13]): inactive
CO[C@H](C(=O)[C@@H](O)[C@@H](C)O)[C@@H]1Cc2cc3c(/N=N/c4ccc(S(N)(=O)=O)cc4)c(O)cc(O)c3c(O)c2C(=O)[C@H]1O[C@H]1C[C@@H](O[C@H]2C[C@@H](O[C@H]3C[C@](C)(O)[C@@H](OC(=O)C(C)C)[C@H](C)O3)[C@H](O)[C@@H](C)O2)[C@H](O)[C@@H](C)O1,> 100000 nM,> 100000 nM,> 100000 nM,50000 nM,> 100000 nM,inactive,inactive,inactive,inactive,inactive,inactive,inactive,inactive,inactive,> 2,inactive,inactive,inactive,inactive,inactive,Activity (Coxsackievirus B4 [13]): inactive
